Results as given in a melting point compilation (Tetko et al.).

melting point | SMILES
57 to 59 °C | Fc1ccc(COc2ccc(CCl)cc2)cc1
268 to 270 °C | CSCCC(C(=O)O)N1C(=O)C2CCCCC2C1=O (stereo unspecified)
209 to 211 °C | Cc1cc(C)c2c(n1)NCC(=O)N2
108 to 110 °C | Cc1csc(=O)n1CCC(=O)O
140 to 142 °C | Cc1sc2nc(-c3ccc(OC(F)F)cc3)nc(Cl)c2c1C
70 to 72 °C | CC(C)Oc1ccc(Cl)c(C(=O)O)n1
136 to 138 °C | COc1ccc(CNC(=O)n2ccnc2)cc1OC
99 to 101 °C | O=C(O)C1Cc2ccccc2CN1S(=O)(=O)c1ccc(F)cc1 (stereo unspecified)
132 to 134 °C | CN(CC(C)(C)C)C(=O)c1cccc(C(=O)O)c1
62 to 64 °C | COc1ccc(C(=O)c2ccco2)cc1
69 to 71 °C | COC(=O)c1ccc(N)cc1C
62 to 64 °C | CC(Br)c1ccc2ccccc2c1 (stereo unspecified)
71 to 73 °C | Cc1nn(-c2ccccc2)c(N2CCCC2)c1C=O
70 to 72 °C | N#Cc1ccc(N2CCC(N)CC2)nc1
85 to 87 °C | Cc1n[nH]c(C)c1C=O
228 to 230 °C | CCn1nnc2cc(C(=O)O)ccc21
155 to 157 °C | Cc1nc(Br)ccc1C(=O)O
159 to 161 °C | COC(=O)c1c[nH]c2cccc(F)c12
139 to 141 °C | Cc1ccc(Cc2cnc(N)s2)cc1F
218 to 220 °C | O=C(O)c1ccnc(C2CC2)n1
199 to 201 °C | Cc1n[nH]cc1C(=O)NN
51 to 55 °C | COC(=O)Cc1c(C)n[nH]c1C
133 to 135 °C | O=C(O)CCC(NC(=O)c1ccccc1)C(=O)O (stereo unspecified)
239 to 241 °C | CC(C)(C)CNC(=O)c1ccc(C(=O)O)cn1
154 to 156 °C | O=C(O)COc1ccc2c(c1)CCC2

melting point | SMILES
185 to 187 °C | Cc1cc(C(F)(F)F)nc(O)n1
264 to 266 °C | O=C(O)c1ccc(-c2cc(F)c(F)c(F)c2)cc1
102 to 104 °C | O=Cc1cccc(NC(=O)C(F)(F)F)c1
54 to 56 °C | CC(Cl)c1ncc(-c2ccccc2)o1 (stereo unspecified)
154 to 156 °C | COc1ccc(NC(=O)c2ccccc2N)c(OC)c1
159 to 161 °C | CCc1c(C(=O)O)cnn1-c1ccccc1
133 to 135 °C | O=C(O)c1coc(Br)c1
239 to 241 °C | Cc1nc2c(c(C)c1CC(=O)O)c(=O)[nH]n2C
235 to 237 °C | CS(=O)(=O)c1snc(O)c1C#N
124 to 126 °C | C=CCNS(=O)(=O)Cc1ccc(N)cc1
127 to 129 °C | O=C(NC(Cc1c[nH]cn1)C(=O)O)C1CCCCC1 (stereo unspecified)
185 to 187 °C | O=C(O)C1CCCN1C(=O)c1ccco1 (stereo unspecified)
125 to 127 °C | O=Cc1cn(-c2ccccc2)nc1-c1ccc(Cl)cc1
202 to 204 °C | CC(C)c1nn(C2CCS(=O)(=O)C2)cc1C(=O)O (stereo unspecified)
121 to 123 °C | O=C(NC1CCc2ccccc21)c1ccnc(F)c1 (stereo unspecified)
209 to 211 °C | COCC(C)NS(=O)(=O)c1ccc(Cl)c([N+](=O)[O-])c1 (stereo unspecified)
76 to 78 °C | CCc1ccc(C(=O)c2ccc([N+](=O)[O-])cc2)o1
154 to 156 °C | Cc1nc(S)nc(C)c1CCC(=O)O
65 to 67 °C | CC(C)c1cccc(OCC(=O)O)c1
182 to 184 °C | Cc1nc(NN)c2c3c(sc2n1)CCC3
119 to 121 °C | CS(=O)(=O)OC1CCCC(S(C)(=O)=O)C1 (stereo unspecified)
138 to 140 °C | NC(Cc1nc2ccccc2[nH]1)=NO
84 to 86 °C | CNCc1ccc(N)nc1
129 to 131 °C | COC(=O)c1cnc2c(c1)c(C)nn2C
99 to 101 °C | O=C(CO)N1CCc2ccccc2C1

melting point | SMILES
75 to 77 °C | CC(C)(C)c1ccc(C(C)(C)N)cc1
53 to 55 °C | CCS(=O)(=O)CCn1ccc(N)n1
170 to 172 °C | Nc1nnc(Cc2ccc(F)cc2)s1
174 to 176 °C | CCN(CC)S(=O)(=O)c1cc(C(=O)O)n(C)c1
150 to 152 °C | CS(=O)(=O)c1ccc(C#N)cc1N
105 to 107 °C | CN(c1ccccc1)c1ccccc1C(=O)O
104 to 106 °C | Nc1ccccc1Oc1ncc(Cl)cc1Cl
239 to 241 °C | CCc1nc(C(=O)O)c[nH]1
55 to 57 °C | CCC(C)NC(=O)CN1CCNCC1 (stereo unspecified)
109 to 111 °C | O=C(O)c1cc2c([nH]1)CCC2
202 to 204 °C | CSc1nc(C(=O)O)c2ccccn12
134 to 136 °C | Cc1nn(C)c2ncc(S(=O)(=O)Cl)cc12
233 to 235 °C | NNc1cc(C(F)(F)F)nc(-c2ccncc2)n1
192 to 194 °C | CCCCc1nc2cc(NC(C)=O)ccc2[nH]1
186 to 188 °C | CNc1c(F)cccc1C(N)=O
273 to 276 °C | Cc1cc(S(=O)(=O)c2ccc(O)c(C)c2)ccc1O
157 to 161 °C | O=Cc1coc2ccc([N+](=O)[O-])cc2c1=O
219 to 221 °C | CC(=O)OCC(=O)[C@@]1(O)CC[C@H]2[C@@H]3CCC4=CC(=O)CC[C@]4(C)[C@H]3[C@@H](O)C[C@@]21C
115 to 117 °C | Nc1nc(-c2ccccc2C(F)(F)F)cs1
67 to 69 °C | CC1(C)CC(=O)CC(C)(C)N1C(=O)CCl
131 to 133 °C | CC(C)(C)OC(=O)N1CCN(c2ccc(N)nc2)CC1
139 to 141 °C | COC(=O)c1cc(CBr)cc(C(=O)OC)c1
234 to 236 °C | CC1=C(C(=O)O)Cc2ccccc2O1
65 to 67 °C | CC(C)(C)OC(=O)N1CCN(c2ncccc2C#N)CC1
89 to 91 °C | CCC(=O)NC(C)C(=O)O (stereo unspecified)

melting point | SMILES
31 to 33 °C | Clc1noc(-c2ccccc2)n1
255 to 257 °C | Cc1c(C(=O)O)oc2ccc(Cl)cc12
131 to 133 °C | O=C(O)CCN1C(=O)CCC1=O
94 to 96 °C | O=S(=O)(Cl)c1csc(-c2cccc(Br)c2)n1
142 to 144 °C | NS(=O)(=O)Cc1ccc(Cl)nc1
148 to 152 °C | Cc1ccc2c(CC(=O)O)coc2c1C
84 to 86 °C | O=S1(=O)CCC(NC2CCNCC2)C1 (stereo unspecified)
174 to 176 °C | NC(=O)c1ccccc1OCCC(=O)O
179 to 181 °C | CCOc1ccc(C(N)=O)cn1
226 to 228 °C | COc1ccc(C(=O)O)cc1-c1ccccn1
188 to 193 °C | Nc1nc(Cl)ccc1[N+](=O)[O-]
141 to 143 °C | CS(=O)(=O)Nc1ccc(S(=O)(=O)Cl)cc1
164 to 166 °C | CC(C)(C)Cc1noc2nc(C3CC3)cc(C(=O)O)c12
122 to 124 °C | O=C(O)Cc1ccc(NS(=O)(=O)c2cccc(C(F)(F)F)c2)cc1
170 to 172 °C | Cc1c(N)cccc1N1CCCC1=O
122 to 124 °C | O=S1CCCNc2ccccc21 (stereo unspecified)
216 to 218 °C | O=C(CCn1ccnc1)Nc1cccc(C(=O)O)c1
267 to 269 °C | CC(=O)Nc1nnc(S)s1
96 to 100 °C | CCCn1c(=O)[nH]c2ccccc21
96 to 98 °C | Nc1nc(Cc2ccc(Cl)cc2Cl)cs1
180 to 182 °C | COC(=O)c1ccc(C)c(NCc2[nH]cnc2C)c1
119 to 121 °C | N#Cc1cc([N+](=O)[O-])cnc1Cl
172 to 174 °C | COc1ccc(N2CCCNC(=O)C2)cc1

SMILES | melting point
ClCc1cc2ccccc2s1 | 49 to 51 °C
Fc1cccc2c(CBr)csc12 | 74 to 76 °C
CC(C)CNCC(O)c1ccc(F)cc1 (stereo unspecified) | 56 to 58 °C
